# Laboratory results: US20240150719A1, “MAGNETIC SHEAR BIOREACTOR APPARATUS AND METHODS” (THE BOARD OF REGENTS OF THE UNIVERSITY OF TEXAS SYSTEM, priority 2021, published 2024)
# Entries after “also recorded” stand apart in the source; their conditions may differ.
# Assays:
# COX2 protein = test: Western blot of COX2 protein in fluid shear stressed human MSCs; type: cell-based; conditions: BAY11-7085 10 μM; human MSC, 8 hours of fluid shear stress
# Procedure: FIG. 11 illustrates representative Western blots showing increased intracellular COX2 protein, which is reduced by NF-kB antagonist BAY11-7085 (10 μM).
# A pilot study was conducted to provide proof of principle that fluid shear stress can be used to condition stem cells, alter gene expression, and enhance functional activities. To exemplify the conditioning activity of shear stress of the type provided by the present system, but on a much smaller analytical scale, force (shear stress) was applied using custom fabricated slides or IBIDI® small-scale microfluidics channel slides obtained from IBIDI, LLC. (Verona, WI, USA). Human samples were harvested from bone marrow (BM), amniotic fluid (AF), or adipose (AD) tissue, processed for isolation and expansion of hMSC, and stored frozen. […] The number of live cells present was determined using trypan blue dye exclusion. Live cell counts were determined on a hemacytometer and the cells were resuspended to obtain the desired concentration for each assay (see Table 1). […]
# Similarly it was determined utilizing commercially available ELISAs that the media from human MSCs cultures that had been subject to fluid shear stress also contained immunomodulatory proteins, such as prostaglandin E2. […]
# [1] = system: TNF-α secretion by splenocytes; test: TNF-α cytokine suppression assay: MSCs in static co-culture with LPS- or PHA-activated splenocytes; type: cell-based, mouse; conditions: for ability of shear treated MSC to suppress TNF-α production: inhibitor 10 μM, six MSC donor lines, compared to Static Vehicle
# Procedure: FIG. 12 illustrates TNF-αcytokine suppression assays that highlight functional enhancement of MSC immunomodulation. Human MSCs preconditioned by mechanical force (15 dyne/cm2 shear stress for 3 hours) are placed in static co-culture with lipopoly-saccharide (LPS) or phytohaemagglutinin (PHA)-activated splenocytes including macrophages, neutrophils, NK, B, and T cells. […] Lower values correspond to greater anti-inflammatory potency. hBM MSC, human bone marrow MSC; hAF MSC, amniotic fluid MSC; hAD MSC, adipose-derived MSC. P-values calculated by paired t-test, equal variance.
# Asterisks indicate p<0.001 compared to Static Vehicle. n=6 indicates six different MSC donor lines included in data shown.
# (§1) Similarly it was determined utilizing commercially available ELISAs that the media from human MSCs cultures that had been subject to fluid shear stress also contained immunomodulatory proteins, such as prostaglandin E2. In addition, Western blotting confirmed elevated protein levels (translation) of COX2, TSG6, and IL1RN. Actin protein expression levels, which are constant, were used as a control for baseline protein expression. […] It was also determined that this induction could be abrogated by the addition of 10 uM of the NF-kappa B antagonist BAY11-7085 (FIG. 11). Furthermore by utilizing commercially available ELISAs, it was determined that the media from human MSCs cultures that had been subject to fluid shear stress for as little as 3 hours had immunosuppressive activity, as evidenced by the 10-50% reduction in TNF-α when treated hMSCs were co-cultured with activated immune cells from the spleen (FIG. 12).
# human amniotic fluid MSC = test: Priming agents combined with shear stress: anti-inflammatory signaling in human amniotic MSC line; type: cell-based
# Procedure: FIG. 14 illustrates that priming agents complement shear-induced anti-inflammatory signaling. Darkened bars represent treatment combinations that indicate a substantial induction of the pathway by shear stress and cytokines (IFN-γ, 20 ng/ml; TNF-α, 50 ng/ml). In this low-performance human amniotic MSC line, TSG6 was induced by shear stress only. IDO was induced by IFN-γ only. hAF MSC, human amniotic fluid MSC.
# as §1
molecule,measurement,setting,value
CC(C)(C)c1ccc(S(=O)(=O)/C=C/C#N)cc1 [BAY11-7085],shear-induced intracellular COX2 protein (Western blot),COX2 protein,abrogated; also recorded: reduced
same,ability of shear treated MSC to suppress TNF-α production,[1],abrogate the positive effects of shear stress
COc1ccc2c(c1)c(CC(=O)O)c(C)n2C(=O)c1ccc(Cl)cc1 [Indomethacin],ability of shear treated MSC to suppress TNF-α production,[1],abrogate the positive effects of shear stress
CS(=O)(=O)Nc1ccc([N+](=O)[O-])cc1OC1CCCCC1 [NS-398],ability of shear treated MSC to suppress TNF-α production,[1],abrogate the positive effects of shear stress
"CCCCC(C)(C)C(O)C=CC1C(O)CC(=O)C1CC=CCCCC(=O)O (stereo not shown) [dmPGE2, 16,16′-dimethyl prostaglandin E2]",TNF-α production with ectopic dmPGE2,[1]; dmPGE2 10 μM,reduced TNF-α to levels produced in the presence of sheared MSCs; also recorded: mimics MSC suppression
IFN-γ: cytokine used as priming agent,IDO induction,"human amniotic fluid MSC; IFN-γ 20 ng/ml, low-performance human amniotic MSC line",induced
same,induction of COX2 and HMOX1 in sheared MSCs with added priming agent,human amniotic fluid MSC; addition of IFN-γ to sheared MSCs versus MSC not subject to shear,greater induction
